From patent US9340774B2, “Tumor-initiating cells and methods for using same” (Wyeth LLC, priority 2009, dated 2016) come the findings set out here.

Assay [1] has as its system H460T CD24−/lowCD44+ and CD24highCD44+ cells. Nature of the assay: Differential drug response of sorted H460T populations. It counts as cell-based, human. From the text: H460 cells were obtained from the American Type Culture Collection (ATCC) in Manassas, Va., United States of America. The H460 cell line was derived from the pleural fluid of a patient with large cell cancer of the lung (Gazdar et al., Science, 1989, 246: 491494). HCC2429 cells were obtained from J. Minna. See Haruki et al., J. Med. Genet., 2005, 42(7):558-64. […] Higher-passage cells are referred to as H460T to distinguish them from the low-passage H460 that were originally obtained from ATCC. All cells were incubated at 37° Celsius with 5.0% carbon dioxide (CO2). H460T cells were cultured in RPMI-1640 (GIBCO®, available from Invitrogen of Carlsbad, Calif., USA). See Moore et al., JAMA, 1967, 199: 519-524, 10% fetal bovine serum (FBS, GIBCO®, available from Invitrogen of Carlsbad, Calif., USA), 2 mM additional glutamine, 100 IU/mipenicillin, 100 μg/ml streptomycin, 1 mM sodium pyruvate, 0.1% sodium bicarbonate, 045% additional glucose, and 10 mM 4-(2-hydroxyethyl)-1-piperazineethanesulfonic acid (HEPES). HCC2429 cells were cultured in RPMI-1640, 10% FBS, 2 mM additional glutamine, 100 IU/ml penicillin, 100 μg/ml streptomycin. Karyotyping and short tandem repeat (STR) analysis of H460T confirmed its H460 origin, however the Y chromosome was absent in H460T cells and present in most H460 cells. […]

Assay [2] deals with 5T4. Nature of the assay: Anti-5T4 immunoblot of sorted cells treated with all-trans retinoic acid. It counts as cell-based, human. Conditions: CD24−/lowCD44+ cells; 10 μM; 72 hours; 0.5% FBS medium; FIG. 6B. As for the experimental part: To determine 5T4 expression under conditions of growth and differentiation, cells were harvested at several time points, and protein extracts were subjected to immunoblot analysis. Cells were washed with PBS and lysed in 0.5% v/v NP40 in 25 mM Tris-buffered saline pH 7.4 (TBS). After protein estimation (MICROBCA™ Protein Assay Kit, Pierce of Rockford, Ill., USA), the lysates were mixed with non-reducing Laemmli sample buffer (Biorad of Hercules, Calif., USA) and 10 μg samples were loaded in each well of a non-reducing 4-20% polyacrylamide gradient gel (NOVEX®, available from Invitrogen of Carlsbad, Calif., USA). The samples were run for two to three hours at 125 volts and transferred to a PVDF (polyvinylidene fluoride) membrane by means of a Novex® electrophoresis transfer system. The membrane was blocked overnight with 5% milk in Tris-buffered saline Tween-20 (TBST) with 1% goat serum, probed with anti-5T4 antibody H8 at 1 μg/ml in 5% milk in TBST, washed and probed with HRP conjugated goat anti-mulgG at 1:5,000 dilution. The ECL detection system was used (Amersham of Burlington, Mass., USA).
To further assess 5T4 expression in tumor cell lines, sorted cells were treated with all-trans retinoic acid to induce differentiation and then subjected to immunoblot analysis. […]
Background: Immunoblotting shows a protein as a band on a membrane.

Assay [3] concerns 60274 xenografts. Nature of the assay: Tumor regression of NSCLC primary implant xenografts, line 60274. It counts as in vivo, mice. Conditions: maximum tolerable dose. On the procedure:
Nude (for 37622) or nod-scid (for 60274) mice were injected subcutaneously between the shoulder blades with fragments of low-passage primary implants. When the tumors reached the mass of 0.2 to 0.5 g, the tumors were staged to ensure uniformity of the tumor mass between various treatment groups prior to the administration of therapy. Anti-5T4 huH8 antibody and anti-CD33 p67.6 antibody were conjugated to calicheamicin via an amide linker as described (Hamann et al., Bioconug. Chem., 2002, 13: 40-46). The “amide” linker restricts the release of calicheamicin to cells that internalize the antibody-drug conjugate (Hamann et al., Bioconug. Chem., 2002, 13: 40-46). […] Tumors were measured at least once a week and their mass was as volume=0.5×(tumor width^2)(tumor length). Mean tumor volume (±SEM) for each treatment group was calculated and compared to the vehicle-treated group for statistical significance using a one-sided t-test, with the error term for the t-test based on the pooled variance across all treatment groups. Tumor values for each treatment group were recorded up to 120 days after the initiation of treatment or until either tumor-bearing mice died or the tumors grew to 15% of the body weight at which time these mice were euthanized according to institutional regulations.

Assay [4] deals with H460T CD24−/lowCD44+ and CD24highCD44+ cells. Nature of the assay: Four-day MTS cell viability assay on sorted cells. It counts as cell-based, human. Conditions: 96 hours of drug exposure, FIG. 10A. On the procedure: The CD24^−/lowCD44^+ population was more sensitive to an anti-5T4 antibody-drug conjugate than the CD24^highCD44^+ population in an cell viability assay and a colony growth assay. For each assay, antibody-calicheamicin AcBut-linked (AcBut-AcBut-[4-(4-acetylphenoxy) butanoic acid]) conjugates were prepared as described (Hamann et al., Bioconjug. Chem., 2002, 13: 47-58). The effect of anti-5T4 huH8 antibody-drug conjugate or anti-CD22 antibody-drug conjugate on sorted cells was assessed using a cellular viability indicator ((3-(4,5-dimethylthiazol-2-yl)-5([…])-2-(4-sulfophenyl)-2H-tetrazolium (MTS) (Promega of Madison, Wis., USA) to determine the number of surviving cells following exposure to the drug treatment. Cells were sorted 18 hours prior to start of assay. Cells were seeded in 96-well microtiter plates at a density of 10000 cells per well and exposed to various concentrations of the drug. Following determination of the number of viable cells surviving 96 hours of drug exposure, the IC50 of each treatment was calculated based on the logistic regression parameters derived from the dose-response curves. IC50 values were calculated by logistic non-linear regression and are reported as the calicheamicin dimethyl hydrazide (CalichDMH) concentration from each treatment group that causes 50% loss of cell viability.
A general note: Tetrazolium dyes change colour on reduction, which living cells bring about.

Assay [5] shares this test system. In words: Colony formation (clonogenic) assay on sorted cells. In kind it is cell-based, human. The following applies: 72 hours drug exposure, 200 cells replated, colonies after 8 days; FIG. 10B. On the procedure:
To perform a colony formation assay, cells were seeded in 24 well plate at a density of 5,000 cells per well. Twenty-four hours after seeding the cells were exposed to various concentrations of (0.000097, 0.000390, 0.00156, 0.00625, 0.025, 0.1, 0.4 ng calicheamicin equivalents/ml) of anti-5T4 H8-AcBut conjugate, anti-CD22 AcBut conjugate, or calicheamicin alone. Seventy-two hours after the drug exposure, cells were trypsinized, counted and 200 cells were plated in 6 well plates. After 8 days, the colonies were fixed and stained with methylene blue. The number of colonies per well was counted using a Stereoscope.

Turning to `O=c1[nH]cc(F)c(=O)[nH]1` [5-fluoruracil], in assay [1], the “response of CD24−/lowCD44+ versus CD24highCD44+ populations” value was “responded equally”. Turning to `CC1=C(/C=C/C(C)=C/C=C/C(C)=C/C(=O)O)C(C)(C)CCC1` [all-trans retinoic acid], the “5T4 expression (immunoblot)” value in assay [2] is on record as “dramatically reduced”. With `CC[C@@]1(O)C(=O)OCc2c1cc1n(c2=O)Cc2cc3ccccc3nc2-1` [camptothecin], the “response of CD24−/lowCD44+ versus CD24highCD44+ populations” value in assay [1] is given as “responded equally”. For the molecule `N.N.[Cl][Pt][Cl]` [cisplatin], in assay [3] (FIG. 12C), the “tumor size of 60274 xenografts” value is “reduced tumor size transiently”. Further, in assay [3] (after completion of the dosing regimen), the “regrowth of 60274 tumors” value was “quickly regrew”. As for calicheamicin, the “sensitivity of CD24−/lowCD44+ cells versus CD24highCD44+ cells (IC50 as CalichDMH concentration)” value in assay [4] is on record as “No difference between the two populations”. Moreover, the “sensitivity of CD24−/lowCD44+ cells versus CD24highCD44+ cells (number of colonies)” value in assay [5] was “No difference between the two populations”.
